# Source: article PMC4500996, “Ortho-methylated 3-hydroxypyridines hinder hen egg-white lysozyme fibrillogenesis” (Scientific Reports, 2015)
# Molecular target: T1, hen egg-white lysozyme (HEWL) (Gallus gallus, UniProt P00698)
# T1 construct: gene LYZ
# Assay: intrinsic Trp fluorescence quenching titration ([…] nm), two-site fit in DynaFit
# Assay type: binding
# Conditions: pH 2.0, 37 °C, 2 mM sodium chloroacetate, 10 µM HEWL; stronger of two independent sites; cationic ligand
# T1 sequence (P00698 19-147): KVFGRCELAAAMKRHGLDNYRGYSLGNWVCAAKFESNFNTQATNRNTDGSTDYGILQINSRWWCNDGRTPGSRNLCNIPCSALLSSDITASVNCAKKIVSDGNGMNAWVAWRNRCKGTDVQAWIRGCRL
row,Ka (M^-1).10^-3( ^a),SMILES
1,(9.3 ± 0.2)·10^3,"Cc1ncccc1O [2 m-3HP, 3-hydroxy-2-methylpyridine]"
2,(8.9 ± 0.2)·10^3,"Cc1ccc(O)c(C)n1 [2,6dm-3HP, 3-hydroxy-2,6-dimethylpyridine]"
3,(7.4 ± 0.1)·10^3,"Cc1ccc(O)cn1 [6 m-3HP, 3-hydroxy-6-methylpyridine]"
